Drug metabolism, Km and Vmax data for 7 molecules are collected here from ChEMBL document CHEMBL3526086, “Identification of the oxidative and conjugative enzymes involved in the biotransformation of brivanib” (Drug Metab Dispos, 2012).

The subject of series [1] is Liver cytosol. As to the kind of experiment: Drug metabolism in human liver cytosol assessed as (R)-4-fluoro-5-(5-methyl-6-(2-sulfopropoxy)pyrrolo[1,2-f][1,2,4]triazin-4-yloxy)-1H-indole-2-carboxylic acid formation at 2 uM for 60 mins by LC/MS analysis in presence of PAPS. It counts as ADME.
Series [2] concerns Liver cytosol. As to the kind of experiment: Drug metabolism in human liver cytosol assessed as sulfate conjugate formation at 2 uM for 60 mins in absence of PAPS by LC/MS analysis. It counts as ADME, tissue-based. The conditions noted are these: 1 h.
For series [3], the system named is Liver microsome. Briefly: Drug metabolism in human liver microsomes assessed as (R)-1-(4-(4-fluoro-2-(hydroxymethyl)-1H-indol-5-yloxy)-5-methylpyrrolo[1,2-f][1,2,4]triazin-6-yloxy)propane-2-sulfonic acid at 2 uM for 60 mins by LC/MS analysis in presence of NADPH. It counts as ADME.
The subject of series [4] is Liver microsome. Briefly: Drug metabolism in human liver microsomes assessed as (R)-4-fluoro-5-(5-methyl-6-(2-sulfopropoxy)pyrrolo[1,2-f][1,2,4]triazin-4-yloxy)-1H-indole-2-carboxylic acid at 2 uM for 60 mins by LC/MS analysis in presence of NADPH. It counts as ADME. For orientation: Liver microsomes are vesicles of endoplasmic reticulum, rich in cytochrome P450 enzymes.

The subject of series [5] is Liver microsome. As to the kind of experiment: Drug metabolism in human liver microsomes assessed as compound oxidation at 2 uM for 60 mins by LC/MS analysis in absence of NADPH. It counts as ADME. The following applies: 1 h.
Series [6] has as its system Liver microsome. Briefly: Drug level in human liver microsomes assessed as compound formation treated with 2 uM [14C]brivanib alaninate for 60 mins by LC/MS analysis in presence of NADPH. It counts as ADME. The conditions noted are these: 1 h.
Series [7] has as its system Liver cytosol. As to the kind of experiment: Drug level in human liver cytosol treated with 2 uM [14C](R)-1-(4-(4-fluoro-2-(hydroxymethyl)-1H-indol-5-yloxy)-5-methylpyrrolo[1,2-f][1,2,4]triazin-6-yloxy)propan-2-ol for 60 mins by LC/MS analysis in presence of NADPH. It counts as ADME, tissue-based.
Series [8] relates to Liver cytosol. Briefly: Drug level in human liver cytosol treated with 2 uM [14C](R)-1-(4-(4-fluoro-2-(hydroxymethyl)-1H-indol-5-yloxy)-5-methylpyrrolo[1,2-f][1,2,4]triazin-6-yloxy)propan-2-ol for 60 mins by LC/MS analysis. It counts as ADME, tissue-based.
In series [9] the test system is Liver cytosol. As to the kind of experiment: Drug level in human liver cytosol treated with 2 uM [14C](R)-1-(4-(4-fluoro-2-(hydroxymethyl)-1H-indol-5-yloxy)-5-methylpyrrolo[1,2-f][1,2,4]triazin-6-yloxy)propan-2-ol for 60 mins by LC/MS analysis in presence of PAPS. It counts as ADME, tissue-based.
Series [10] has as its system Liver microsome. As to the kind of experiment: Drug level in human liver microsomes treated with 2 uM [14C](R)-1-(4-(4-fluoro-2-methyl-1H-indol-5-yloxy)-5-methylpyrrolo[1,2-f][1,2,4]triazin-6-yloxy)propane-2-sulfonic acid for 60 mins by LC/MS analysis in presence of NADPH. It counts as ADME.
Series [11] has as its system Liver cytosol. As to the kind of experiment: Drug level in human liver cytosol treated with 2 uM [14C](R)-4-fluoro-5-(6-(2-hydroxypropoxy)-5-methylpyrrolo[1,2-f][1,2,4]triazin-4-yloxy)-1H-indole-2-carboxylic acid for 60 mins by LC/MS analysis in presence of PAPS. It counts as ADME, tissue-based.
Substrate in series [12]: Cc1cc2c(F)c(Oc3ncnn4cc(OC[C@@H](C)O)c(C)c34)ccc2[nH]1
As to the kind of experiment: Activity of human CYP1A2 assessed as enzyme-mediated (R)-1-(4-(4-fluoro-2-(hydroxymethyl)-1H-indol-5-yloxy)-5-methylpyrrolo[1,2-f][1,2,4]triazin-6-yloxy)propan-2-ol formation in presence of NADPH. It counts as ADME.

Regarding `Cc1c(OC[C@@H](C)O)cn2n[14cH]nc(Oc3ccc4[nH]c(C(=O)O)cc4c3F)c12`, the results for the Drug metabolism result with Liver cytosol [1] and in the series on Liver cytosol [2] were “metabolite_detected” and “metabolite_not_detected”, respectively.
Consider `Cc1cc2c(F)c(Oc3n[14cH]nn4cc(OC[C@@H](C)OS(=O)(=O)O)c(C)c34)ccc2[nH]1`, for which the Drug metabolism result in the series on Liver microsome [3] was “metabolite_detected”; in the series on Liver microsome [4], “metabolite_detected”; in the series with Liver microsome [5], “metabolite_not_detected”.
With `CC(=O)COc1cn2ncnc(Oc3ccc4[nH]c(C)cc4c3F)c2c1C`, in the series with Liver microsome [6], the Drug metabolism entry is reported as “metabolite_detected”.
Consider `Cc1c(OC[C@@H](C)O)cn2ncnc(Oc3ccc4[nH]c(C(=O)O)cc4c3F)c12`, for which the Drug metabolism entry with Liver microsome [6], in the series on Liver cytosol [7] and in the series on Liver cytosol [8] was “metabolite_detected” in each case.
Regarding `Cc1c(OC[C@@H](C)OS(=O)(=O)O)cn2ncnc(Oc3ccc4[nH]c(CO)cc4c3F)c12`, the Drug metabolism result with Liver cytosol [9] and with Liver microsome [10] was “metabolite_detected” throughout.
Regarding `Cc1c(OC[C@@H](C)OS(=O)(=O)O)cn2ncnc(Oc3ccc4[nH]c(C(=O)O)cc4c3F)c12`, the Drug metabolism entry with Liver cytosol [9], with Liver cytosol [11] and with Liver microsome [10] was “metabolite_detected” in each case.

B1: Cytochrome P450 1A2 (Homo sapiens) (protein)
chain: MALSQSVPFSATELLLASAIFCLVFWVLKGLRPRVPKGLKSPPEPWGWPLLGHVLTLGKNPHLALSRMSQRYGDVLQIRIGSTPVLVLSRLDTIRQALVRQGDDFKGRPDLYTSTLITDGQSLTFSTDSGPVWAARRRLAQNALNTFSIASDPASSSSCYLEEHVSKEAKALISRLQELMAGPGHFDPYNQVVVSVANVIGAMCFGQHFPESSDEMLSLVKNTHEFVETASSGNPLDFFPILRYLPNPALQRFKAFNQRFLWFLQKTVQEHYQDFDKNSVRDITGALFKHSKKGPRASGNLIPQEKIVNLVNDIFGAGFDTVTTAISWSLMYLVTKPEIQRKIQKELDTVIGRERRPRLSDRPQLPYLEAFILETFRHSSFLPFTIPHSTTRDTTLNGFYIPKKCCVFVNQWQVNHDPELWEDPSEFRPERFLTADGTAINKPLSEKMMLFGMGKRRCIGEVLAKWEIFLFLAILLQQLEFSVPPGVKVDLTPIYGLTMKHARCEHVQARLRFSIN
B1: in series [12], the Km is 45 µM and the Vmax was 1.39e-06 µmol/min.

One may read the Km as the substrate concentration at which the rate is half of its maximum. As usually defined, the Vmax is the rate approached at saturating substrate.
